Read-outs that look alike come from different tables or passages of the source.
Columns and labels:
DENV2 [1] = details: DENV2 in VERO-B cells; cited from earlier work
DENV = system: DENV; parameters: method as in PMID 27750144; details: against DENV; cited from earlier work
DENV-2 = system: DENV-2; parameters: method as in PMID 29031073; details: cited from earlier work; for EC50: anti-DENV-2 activity
Huh-7 cells [2] = assay: Cytotoxicity assay (XTT method); format: cell-based, Human; details: Huh-7 cells
Protocol: (§1) For cytotoxicity tests, run in parallel with antiviral assays, plates at an initial density of 5 × 10^3 cells/well were treated with or without serial dilutions of test compounds. Cell viability was determined after 72 h at 37 °C in a humidified CO2 (5%) atmosphere by the (2,3-bis[2-methyloxy-4-nitro-5-sulfophenyl]-2H-tetrazolium-5-carboxanilide) (XTT) method.

[3] = Cytotoxicity assay (XTT method); format: cell-based, Human; details: human, mean ± SD; for CC50 at 72 h: uninfected Huh-7 cells, read-out: CC50 (concentration causing a 50% growth inhibition of uninfected Huh-7 cells)
Protocol: as §1

DENV2 [4] = assay: microbe, parasite or virus in culture; format: cell-based, dengue virus; details: for SI (selectivity index, CC50/EC50): CC50 Huh-7 / EC50 DENV; for EC50: DENV2, DENV replication, read-out: EC50 (concentration resulting in a 50% inhibition in virus production)
Protocol: Anti-DENV activities were determined by firefly luciferase activity.
Huh-7-DV-Fluc cells were seeded in 24-well plates at a density of 2 × 10^4 cells per well, and treated with the 3-arylquinoxaline compounds at two concentrations (1 and 10 μM) or 0.1% DMSO as control. After three days of incubation, the luciferase activity assay was performed using the Bright-Glo Luciferase assay system (Promega, Madison, WI, USA) according to the manufacturer’s instructions.

DENV2 [5] = system: DENV2; parameters: method as in PMID 29031073; details: cited from earlier work
Huh-7 cells [6] = system: Huh-7 cells; parameters: method as in PMID 29031073; details: cited from earlier work

SMILES: O=C(NCc1ccc(-c2ccncc2)cc1)c1nccnc1C(=O)Nc1ccc(F)cc1 [Compound 1, N^2-(4-fluorophenyl)-N^3-[4-(pyridin-4-yl)benzyl]pyrazine-2,3-dicarboxamide]
- EC50 (DENV2 [1]): 0.93 µM

SMILES: Cc1ccc(Cc2nc(Cc3ccc(C)cc3-c3cc(C)n[nH]3)c3ccccc3n2)cc1 [Compound 2, 4-[4-methyl-2-(3-methyl-1H-pyrazol-5-yl)benzyl)-2-(4-methylbenzyl)quinazoline]
- EC50 (DENV): 2.6 µM

SMILES: COc1ccc(-c2cc(-c3ccc4cc(F)ccc4n3)n(-c3ccc(S(N)(=O)=O)cc3)n2)cc1 [Compound 5, 4-[5-(6-fluoroquinolin-2-yl)-3-(4-methoxyphenyl)-1H-pyrazol-1-yl]benzenesulfonamide]
- EC50 (DENV-2): 0.81 µM
- fold more active anti-DENV-2 activity than ribavirin (DENV-2): approximately 10 fold

SMILES: COc1ccc(C(=O)c2nc3ccccc3nc2-c2ccccc2)cc1 [Compound 21b, (4-Methoxyphenyl)(3-phenylquinoxalin-2-yl)methanone]
- melting point: 130 to 132.4 °C
- cytotoxicity in words (Huh-7 cells [2]): non-cytotoxic
- viability at 72 h, 20 µM ([3]; Huh-7 cells, 20 μM, 72 h, XTT, read-out: Huh-7 Cell % viability at 20 μM): 106 ± 3.12%
- viability at 72 h, 200 µM ([3]; Huh-7 cells, 200 μM, 72 h, XTT, read-out: Huh-7 Cell % viability at 200 μM): 95.1 ± 4.32%
- CC50 at 72 h [3]: > 200 µM
- anti-DENV activity in words (DENV2 [4]; 10 μM, >32% inhibition of DENV-2 at 10 μM considered as active): highly active
- DENV2 % Inhibition at 10 μM (DENV2 [4]; 10 μM, Huh-7-DV-Fluc cells, three days, mean ± SD): 51.85 ± 3.52%
- SI (selectivity index, CC50/EC50) (DENV2 [4]): >61.54
- inhibition at 1 µM (DENV2 [4]; Dengue virus, DENV2, 72 h, 1 μM, Huh-7-DV-Fluc cells, three days, mean ± SD): 42.8 ± 5.13%
- inhibition at 10 µM (DENV2 [4]; Dengue virus, DENV2, 72 h, 10 μM, Huh-7-DV-Fluc cells, three days, mean ± SD): 51%
- EC50 (DENV2 [4]; Dengue virus, mean ± SD): 3.25 ± 0.89 µM

SMILES: NC(=O)c1ncn([C@@H]2O[C@H](CO)[C@@H](O)[C@H]2O)n1 [Ribavirin]
- EC50 (DENV-2): 12.6 µM
- CC50 at 72 h [3]: 56.3 ± 2.32 µM
- DENV2 % Inhibition at 1 μM (DENV2 [5]; 1 μM): 10.14 ± 1.98%
- DENV2 % Inhibition at 10 μM (DENV2 [5]; 10 μM): 32.53 ± 2.30%
- Huh-7 Cell % viability at 20 μM (Huh-7 cells [6]; 20 μM): 71.37 ± 1.31%
- Huh-7 Cell % viability at 200 μM (Huh-7 cells [6]; 200 μM): 14.36 ± 2.14%
- SI (selectivity index, CC50/EC50) (DENV2 [4]): 4.47
- EC50 (DENV2 [4]; Dengue virus, mean ± SD): 12.6 ± 1.17 µM

Reference: paper PMC6801405, “Discovery of 3-Arylquinoxaline Derivatives as Potential Anti-Dengue Virus Agents” (International Journal of Molecular Sciences, 2019)
